The source of these data is paper PMC5584065 (Biochemical pharmacology, 2015).

Like-named read-outs stand apart in the source and are kept apart here.

The subject of one data set is Human CYP2E1. To be noted: cited from earlier work.
Data set [1] has as its target T1, CYP2E1 (Homo sapiens, UniProt P05181). Briefly: biochemical.
Data set [2] deals with T1, CYP2E1. In words: in vitro. To be noted: recombinant enzyme, pH 7.4.
In data set [3] the target is T1, CYP2E1. Briefly: Impact of styrene on acetaminophen oxidation by recombinant CYP2E1. To be noted: 100 µM acetaminophen, styrene 50 to 500 µM.
The target of data set [4] is T1, CYP2E1. Particulars: read-out: Ks; styrene, free enzyme; cited from earlier work.

T1 sequence (P05181 whole entry): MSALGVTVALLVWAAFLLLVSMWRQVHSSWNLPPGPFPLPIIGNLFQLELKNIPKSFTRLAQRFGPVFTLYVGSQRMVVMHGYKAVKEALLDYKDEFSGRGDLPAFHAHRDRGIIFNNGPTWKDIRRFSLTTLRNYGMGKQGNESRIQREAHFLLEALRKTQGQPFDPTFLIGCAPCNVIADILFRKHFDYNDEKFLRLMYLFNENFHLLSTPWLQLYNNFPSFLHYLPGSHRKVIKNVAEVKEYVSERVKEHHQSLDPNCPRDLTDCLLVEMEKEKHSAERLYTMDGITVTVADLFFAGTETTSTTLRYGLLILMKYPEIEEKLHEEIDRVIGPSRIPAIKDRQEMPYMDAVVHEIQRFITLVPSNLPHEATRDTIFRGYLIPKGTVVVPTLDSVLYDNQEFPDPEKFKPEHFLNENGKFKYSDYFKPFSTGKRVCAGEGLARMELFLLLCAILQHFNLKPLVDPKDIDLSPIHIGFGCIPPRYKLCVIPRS

`CC(=O)Nc1ccc(O)cc1` [acetaminophen]: the Km in the data set on Human CYP2E1 (CYP2E1 expressed in HepG2 cells or purified CYP2E1 in a reconstituted system) is roughly 600 µM; in the data set with Human CYP2E1 (reconstituted CYP2E1 system), 1300 µM.

On CYP2E1 [1], `C=Cc1ccccc1` [styrene] gave an IC50 of 22 µM. Also, the activity at CYP2E1 [2] stood at 19%. On CYP2E1 [3], the “remaining acetaminophen oxidation activity versus prediction” value is listed as “greater than would be predicted by simple competition”. Besides, the Kd at CYP2E1 [4] was 375 µM.
